The values below come from PMC9820345, “Metal Complexes of a 5-Nitro-8-Hydroxyquinoline-Proline Hybrid with Enhanced Water Solubility Targeting Multidrug Resistant Cancer Cells” (International Journal of Molecular Sciences, 2022).

For one data set, the target named is T1, OATP2B1 (Homo sapiens, UniProt O94956).
T1 construct: expressed in transfected cells; host or cells: A431 epidermoid carcinoma cells
T1 sequence (O94956 1-709): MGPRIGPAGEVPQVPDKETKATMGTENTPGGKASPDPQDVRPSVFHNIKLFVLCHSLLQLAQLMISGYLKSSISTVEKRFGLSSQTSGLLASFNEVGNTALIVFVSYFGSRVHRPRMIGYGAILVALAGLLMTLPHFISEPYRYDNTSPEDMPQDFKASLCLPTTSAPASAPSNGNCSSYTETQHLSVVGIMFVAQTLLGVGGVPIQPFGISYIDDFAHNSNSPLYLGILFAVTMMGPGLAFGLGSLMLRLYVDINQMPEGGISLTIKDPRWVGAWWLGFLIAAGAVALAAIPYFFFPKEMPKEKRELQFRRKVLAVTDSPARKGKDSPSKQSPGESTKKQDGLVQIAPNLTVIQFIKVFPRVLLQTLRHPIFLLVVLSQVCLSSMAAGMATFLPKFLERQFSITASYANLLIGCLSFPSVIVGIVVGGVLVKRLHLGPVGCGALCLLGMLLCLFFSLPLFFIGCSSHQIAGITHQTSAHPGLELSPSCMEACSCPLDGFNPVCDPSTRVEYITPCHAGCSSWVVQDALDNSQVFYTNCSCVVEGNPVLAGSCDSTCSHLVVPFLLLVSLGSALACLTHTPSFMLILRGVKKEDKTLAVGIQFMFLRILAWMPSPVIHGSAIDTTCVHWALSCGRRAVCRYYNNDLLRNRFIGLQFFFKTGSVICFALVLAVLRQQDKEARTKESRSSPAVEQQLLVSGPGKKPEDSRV
Nature of the data set: OATP uptake assay, OATP2B1. It is filed as cell-based. The note with it: human, 20 μM. As to the method:
Cell lines: A431 cells overexpressing OATP1B1 or OATP2B1, and their mock transfected controls were generated and characterized previously. The cell lines were cultured in DMEM (Gibco, Thermofisher Scientific, Waltham, MA, USA), supplemented with 10% fetal bovine serum, 2 mM L-glutamine, 100 μg/mL streptomycin, and 100 units/mL penicillin at 37 °C and 5% CO2.
OATP uptake assay: Prior to the experiment, A431 cells (8 × 10^4/well) were seeded on 96-well plates in 200 μL cell culture medium. After 16–24 h, the cells were washed with 200 μL PBS, three times and pre-incubated with 20–200 μM HQNO2-L-Pro, or buffer without HQNO2-L-Pro for 5 min at 37 °C in 50 μL HBSS (Hank’s Balanced Salt Solution, pH 7.4; OATP1B1) or uptake buffer (pH 5.5; OATP2B1 [63]). The reaction was started by the addition of disulfopyrene (6,8-dihydroxy-1,3-pyrenedisulfonic acid disodium salt, Sigma, Darmstadt, Germany) at a final concentration of 10 μM (OATP1B1) or pyranine (8-hydroxypyrene-1,3-pyrenetrisulfonic acid trisodium salt, Sigma, Darmstadt, Germany) at a final concentration of 20 μM (OATP2B1), and the cells were further incubated at 37 °C for 10 min (OATP1B1) or 15 min (OATP2B1). The reaction was stopped by removing the supernatant after which the cells were washed three times with ice-cold PBS. Fluorescence (in 200 μL PBS) was determined using an Enspire plate reader (PerkinElmer, Waltham, MA, USA) with excitation/emission wavelengths of 460/510 nm. OATP-dependent transport was calculated by subtracting fluorescence measured in mock transfected cells. Transport activity was calculated based on the fluorescence signal in the absence (100%) of HQNO2-L-Pro. Experiments were repeated in at least three biological replicates.

For a further data set, the target named is T2, HSA (Homo sapiens, UniProt P02768).
T2 construct: purchased Sigma-Aldrich (Darmstadt, Germany) A8763
T2 sequence (P02768 25-609): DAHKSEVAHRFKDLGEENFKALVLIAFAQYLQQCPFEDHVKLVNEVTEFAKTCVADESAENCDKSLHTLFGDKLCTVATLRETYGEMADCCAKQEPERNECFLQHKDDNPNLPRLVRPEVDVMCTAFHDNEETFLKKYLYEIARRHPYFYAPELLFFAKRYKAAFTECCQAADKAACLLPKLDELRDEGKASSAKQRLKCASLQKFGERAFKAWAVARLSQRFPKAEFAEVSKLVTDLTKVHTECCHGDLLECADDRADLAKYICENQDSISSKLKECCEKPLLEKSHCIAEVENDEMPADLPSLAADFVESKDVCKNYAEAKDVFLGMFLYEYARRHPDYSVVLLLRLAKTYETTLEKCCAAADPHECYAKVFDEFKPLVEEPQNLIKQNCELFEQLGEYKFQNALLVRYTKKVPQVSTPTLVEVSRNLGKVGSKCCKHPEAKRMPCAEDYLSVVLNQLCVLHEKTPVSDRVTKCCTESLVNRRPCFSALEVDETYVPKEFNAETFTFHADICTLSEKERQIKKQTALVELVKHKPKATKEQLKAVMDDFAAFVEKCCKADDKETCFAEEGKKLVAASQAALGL
Nature of the data set: Time course of complex-HSA interaction (UV-vis). Conditions: complex–HSA (1:1 or 2:1); pH 7.4. Type of data set: binding. As to the method: First, changes in the UV-vis spectra were followed in time in the complex—HSA (1:1 or 2:1) system, and it was concluded that the equilibrium can be reached within ca. 30 min for the RhCp* complex (Figure S25). […] The binding of the RuCym complex to HSA without the release of the bidentate ligand was also confirmed by CZE measurement (Figure S27). Most likely a donor atom of the protein binds at the coordination site of the co-ligand.
An Agilent Cary 8454 diode array spectrophotometer (Santa Clara, CA, USA) was used to obtain UV-vis spectra in the wavelength range 200–1000 nm, while spectra were recorded for the Fe(II)-containing samples using an Avantes (Avantes B.V., Apeldoorn, The Nederlands) AvaSpec-ULS2048CL-EVO spectrometer with an AvaLight-DHc light source and FDP-7UVIR200-2-VAR transmission dip probe. The titrations for the Fe(II)-containing samples were performed in a laboratory glove box (GP(Campus), Jacomex) (O2 content ≤ 1 ppm). The path length (ℓ) was 1 cm in most cases (the actual ℓ is always indicated in the legends of the figures). The concentrations of the ligands and complexes were between 40 and 200 µM, and 0.2 M KNO3 for the organometallic complexes or 0.1 M KCl for the Fe(II/III), Cu(II), and Zn(II) complexes were used to adjust the constant ionic strength. […]

For `O=C(O)[C@@H]1CCCN1Cc1cc([N+](=O)[O-])c2cccnc2c1O` [HQNO2-L-Pro, (2S)-1-((8-hydroxy-5-nitroquinolin-7-yl)methyl)pyrrolidin-1-ium-2-carboxylate], the activity at 15 min, 10 µM on OATP2B1 (A431 cells overexpressing OATP2B1, pH 5.5, probe pyranine, 10 μM, absence of compound = 100%, n = 3, ± SD, read-out: transport activity % OATP2B1) worked out at 98.2 ± 5.5%. For the same molecule, the activity at 15 min, 100 µM on OATP2B1 (A431 cells overexpressing OATP2B1, pH 5.5, probe pyranine, 100 μM, absence of compound = 100%, n = 3, ± SD, read-out: transport activity % OATP2B1) turned out to be 83.3 ± 9.7%. Also, the inhibition at 15 min, 100 µM on OATP2B1 (probe pyranine, at 100 μM, A431 cells overexpressing OATP2B1, pH 5.5, read-out: inhibition of OATP2B1 function) is below 20%.

Take `CC1=C(C)[C](C)([Rh]([Cl])[O]c2c(C[NH+]3CCC[C@H]3C(=O)O)cc([N+](=O)[O-])c3cccnc23)C(C)=C1C.[Cl-]` [RhCp*-HQNO2-L-Pro, [RhCp*(HQNO2-L-Pro)Cl]Cl]: the “time to reach equilibrium with HSA” value on HSA is given as at most 30 min.
